According to USRE40086E1, “Method for treating bacterial infection with novel 7-substituted-9-substituted amino 6-demethyl-6-deoxytetracyclines” (Wyeth Holdings Corporation, priority 1991, dated 2008):
Values after ≈ are worked out from the molar mass of the structure shown.

Experiments:
Assay in all cases: MIC, agar dilution
Format in all cases: cell-based
[1] = system: S. aureus UBMS 90-2 (tetM); conditions: S. aureus UBMS 90-2 (tetM)
E. coli UBMS 89-1 (tetM) = conditions: E. coli UBMS 89-1 (tetM)
[2] = system: S. aureus UBMS 88-4 (Sensitive); conditions: S. aureus UBMS 88-4 (Sensitive)
E. faecalis ATCC 29212 = conditions: E. faecalis ATCC 29212
[3] = system: S. aureus UBMS 90-3 (Sensitive); conditions: S. aureus UBMS 90-3 (Sensitive)
[4] = system: E. coli UBMS 88-2 (Sensitive); conditions: E. coli UBMS 88-2 (Sensitive)
[5] = system: S. aureus IVES 1983 (meth. resistant); conditions: S. aureus IVES 1983 (meth. resistant)
E. coli UBMS 88-1 (tetB) = conditions: E. coli UBMS 88-1 (tetB)
[6] = system: S. aureus UBMS 88-5 (tetM); conditions: S. aureus UBMS 88-5 (tetM)
[7] = system: S. aureus UBMS 90-1 (tetM); conditions: S. aureus UBMS 90-1 (tetM)
E. coli ATCC 25922 = conditions: E. coli ATCC 25922
[8] = system: S. aureus UBMS 88-7 (tetK); conditions: S. aureus UBMS 88-7 (tetK)
[9] = system: S. aureus ATCC 29213 (Sensitive); conditions: S. aureus ATCC 29213 (Sensitive)
[10] = system: S. haemolyticus AVAH 88-3; conditions: S. haemolyticus AVAH 88-3
[11] = system: E. coli UBMS 89-2 (Sensitive); conditions: E. coli UBMS 89-2 (Sensitive)
[12] = system: S. aureus IVES 2943 (meth. resistant); conditions: S. aureus IVES 2943 (meth. resistant)
[13] = system: S. aureus Smith (Sensitive); conditions: S. aureus Smith (Sensitive)
E. faecalis 12201 = conditions: E. faecalis 12201

| SMILES | MIC [1] | MIC (E. coli UBMS 89-1 (tetM)) | MIC [2] | MIC (E. faecalis ATCC 29212) | MIC [3] | MIC [4] | MIC [5] | MIC (E. coli UBMS 88-1 (tetB)) | MIC [6] | MIC [7] | MIC (E. coli ATCC 25922) | MIC [8] | MIC [9] | MIC [10] | MIC [11] | MIC [12] | MIC [13] | MIC (E. faecalis 12201) |
| --- | --- | --- | --- | --- | --- | --- | --- | --- | --- | --- | --- | --- | --- | --- | --- | --- | --- | --- |
| CN(C)c1cc(NS(=O)(=O)c2ccc([N+](=O)[O-])cc2)c(O)c2c1CC1CC3C(N(C)C)C(O)=C(C(N)=O)C(=O)C3(O)C(O)=C1C2=O (stereo not shown) [AA, 7-(Dimethylamino)-9-[[(4-nitrophenyl)sulfonyl]amino]-6-demethyl-6-deoxytetracycline] | 0.12 µg/mL (≈ 0.182 µM) | 4 µg/mL (≈ 6.08 µM) | 0.12 µg/mL (≈ 0.182 µM) | 0.12 µg/mL (≈ 0.182 µM) | 0.06 µg/mL (≈ 0.0912 µM) | 8 µg/mL (≈ 12.2 µM) | 8 µg/mL (≈ 12.2 µM) | 16 µg/mL (≈ 24.3 µM) | 0.12 µg/mL (≈ 0.182 µM) | 0.5 µg/mL (≈ 0.76 µM) | 4 µg/mL (≈ 6.08 µM) | 2 µg/mL (≈ 3.04 µM) | 0.12 µg/mL (≈ 0.182 µM) | 2 µg/mL (≈ 3.04 µM) | 16 µg/mL (≈ 24.3 µM) | 4 µg/mL (≈ 6.08 µM) | 0.12 µg/mL (≈ 0.182 µM) |  |
| CN(C)C1C(O)=C(C(N)=O)C(=O)C2(O)C(O)=C3C(=O)c4c(O)c(NC=O)cc(I)c4CC3CC12.O=S(=O)(O)O (stereo not shown) [G, 9-(Formylamino)-7-iodo-6-demethyl-6-deoxytetracycline sulfate] | 0.5 µg/mL | 1 µg/mL | <0.015 µg/mL | 0.25 µg/mL | 0.03 µg/mL | 1 µg/mL | 32 µg/mL | >32 µg/mL | 1 µg/mL | 4 µg/mL | 0.5 µg/mL | 16 µg/mL |  | 0.06 µg/mL | 1 µg/mL | 32 µg/mL | 0.03 µg/mL | 16 µg/mL |
| CC(=O)Nc1nc(C)c(S(=O)(=O)Nc2cc(N(C)C)c3c(c2O)C(=O)C2=C(O)C4(O)C(=O)C(C(N)=O)=C(O)C(N(C)C)C4CC2C3)s1 (stereo not shown) [GG, 9-[[[(2-Acetylamino)-4-methyl-5-thiazolyl]sulfonyl]amino]-7-(dimethylamino)-6-demethyl-6-deoxytetracycline] | 4 µg/mL (≈ 5.79 µM) | 32 µg/mL (≈ 46.3 µM) | 4 µg/mL (≈ 5.79 µM) | 1 µg/mL (≈ 1.45 µM) | 2 µg/mL (≈ 2.9 µM) | >32 µg/mL | 32 µg/mL (≈ 46.3 µM) | >32 µg/mL | 16 µg/mL (≈ 23.2 µM) | 32 µg/mL (≈ 46.3 µM) | >32 µg/mL | 32 µg/mL (≈ 46.3 µM) | 0.5 µg/mL (≈ 0.724 µM) |  | >32 µg/mL | >32 µg/mL | 2 µg/mL (≈ 2.9 µM) |  |
| CC(=O)Nc1cc(I)c2c(c1O)C(=O)C1=C(O)C3(O)C(=O)C(C(N)=O)=C(O)C(N(C)C)C3CC1C2.O=S(=O)(O)O (stereo not shown) [H, 9-(Acetylamino)-7-iodo-6-demethyl-6-deoxytetracycline sulfate] | 0.5 µg/mL | 128 µg/mL | 0.25 µg/mL | 0.25 µg/mL | 0.12 µg/mL | >128 µg/mL | 32 µg/mL |  | 1 µg/mL | 1 µg/mL | 16 µg/mL | 16 µg/mL | 0.22 µg/mL | 2 µg/mL | 16 µg/mL | 32 µg/mL | 0.12 µg/mL | 2 µg/mL |
| CN(C)c1cc(NC(=O)C(F)(F)F)c(O)c2c1C[C@H]1C[C@H]3[C@H](N(C)C)C(O)=C(C(N)=O)C(=O)[C@@]3(O)C(O)=C1C2=O.O=S(=O)(O)O [I, 7-(Dimethylamino)-9-((trifluoroacetyl)amino]-g-demethyl-6-deoxytetracycline sulfate] | 16 µg/mL | 32 µg/mL | 8 µg/mL | 8 µg/mL | 4 µg/mL | 32 µg/mL | 32 µg/mL | >32 µg/mL | 16 µg/mL | 16 µg/mL | 32 µg/mL | 16 µg/mL | 1 µg/mL | 0.5 µg/mL | 32 µg/mL |  | 8 µg/mL | 16 µg/mL |
| CN(C)c1cc(NC(=O)c2ccccc2)c(O)c2c1CC1CC3C(N(C)C)C(O)=C(C(N)=O)C(=O)C3(O)C(O)=C1C2=O (stereo not shown) [P, 9-(Benzoylamino)-7-(dimethylamino)-6-demethyl-6-deoxytetracycline] | 4 µg/mL (≈ 6.94 µM) |  | 4 µg/mL (≈ 6.94 µM) | 4 µg/mL (≈ 6.94 µM) | 1 µg/mL (≈ 1.73 µM) | >32 µg/mL | 8 µg/mL (≈ 13.9 µM) | >32 µg/mL | 4 µg/mL (≈ 6.94 µM) | 4 µg/mL (≈ 6.94 µM) | >32 µg/mL | 8 µg/mL (≈ 13.9 µM) | 0.25 µg/mL (≈ 0.434 µM) | 4 µg/mL (≈ 6.94 µM) | >32 µg/mL | 16 µg/mL (≈ 27.7 µM) | 1 µg/mL (≈ 1.73 µM) | 8 µg/mL (≈ 13.9 µM) |
| COc1ccc(C(=O)Nc2cc(N(C)C)c3c(c2O)C(=O)C2=C(O)C4(O)C(=O)C(C(N)=O)=C(O)C(N(C)C)C4CC2C3)cc1 (stereo not shown) [Q, 7-(Dimethylamino)-9-[(4-methoxybenzoyl)amino)-6-demethyl-6-deoxytetracycline] | 8 µg/mL (≈ 13.2 µM) |  | 8 µg/mL (≈ 13.2 µM) | 8 µg/mL (≈ 13.2 µM) | 4 µg/mL (≈ 6.59 µM) | >32 µg/mL | 16 µg/mL (≈ 26.4 µM) | >32 µg/mL | 8 µg/mL (≈ 13.2 µM) | 8 µg/mL (≈ 13.2 µM) | >32 µg/mL | 16 µg/mL (≈ 26.4 µM) | 1 µg/mL (≈ 1.65 µM) | 8 µg/mL (≈ 13.2 µM) | >32 µg/mL | 8 µg/mL (≈ 13.2 µM) | 4 µg/mL (≈ 6.59 µM) | 8 µg/mL (≈ 13.2 µM) |
| Cc1ccccc1C(=O)Nc1cc(N(C)C)c2c(c1O)C(=O)C1=C(O)C3(O)C(=O)C(C(N)=O)=C(O)C(N(C)C)C3CC1C2 (stereo not shown) [R, 7-(Dimethylamino)-9-((2-methylbenzoyl)amino]-6-demethyl-6-deoxytetracycline] | 2 µg/mL (≈ 3.39 µM) |  | 2 µg/mL (≈ 3.39 µM) | 2 µg/mL (≈ 3.39 µM) | 1 µg/mL (≈ 1.69 µM) | >32 µg/mL | 8 µg/mL (≈ 13.5 µM) | 2 µg/mL (≈ 3.39 µM) | 4 µg/mL (≈ 6.77 µM) | 8 µg/mL (≈ 13.5 µM) | >32 µg/mL | 4 µg/mL (≈ 6.77 µM) | 0.12 µg/mL (≈ 0.203 µM) | 8 µg/mL (≈ 13.5 µM) | >32 µg/mL | 4 µg/mL (≈ 6.77 µM) | 1 µg/mL (≈ 1.69 µM) | 8 µg/mL (≈ 13.5 µM) |
| CN(C)c1cc(NC(=O)c2ccccc2F)c(O)c2c1CC1CC3C(N(C)C)C(O)=C(C(N)=O)C(=O)C3(O)C(O)=C1C2=O (stereo not shown) [S, 7-(Dimethylamino)-9-[(2-fluorobenzoyl)amino]-6-demethyl-6-deoxytetracycline] | 1 µg/mL (≈ 1.68 µM) |  | 2 µg/mL (≈ 3.36 µM) | 4 µg/mL (≈ 6.73 µM) | 1 µg/mL (≈ 1.68 µM) | >32 µg/mL | 4 µg/mL (≈ 6.73 µM) | >32 µg/mL | 2 µg/mL (≈ 3.36 µM) | 4 µg/mL (≈ 6.73 µM) | >32 µg/mL | 8 µg/mL (≈ 13.5 µM) | 0.5 µg/mL (≈ 0.841 µM) | 4 µg/mL (≈ 6.73 µM) | >32 µg/mL | 8 µg/mL (≈ 13.5 µM) | 1 µg/mL (≈ 1.68 µM) | 4 µg/mL (≈ 6.73 µM) |
| CN(C)c1cc(NC(=O)c2c(F)c(F)c(F)c(F)c2F)c(O)c2c1CC1CC3C(N(C)C)C(O)=C(C(N)=O)C(=O)C3(O)C(O)=C1C2=O (stereo not shown) [T, 7-(Dimethylamino)-9-((pentafluorobenzoyl)amino]-6-demethyl-6-deoxytetracycline] | 2 µg/mL (≈ 3 µM) |  | 4 µg/mL (≈ 6 µM) | 4 µg/mL (≈ 6 µM) | 2 µg/mL (≈ 3 µM) | >32 µg/mL | 4 µg/mL (≈ 6 µM) | >32 µg/mL | 4 µg/mL (≈ 6 µM) | 4 µg/mL (≈ 6 µM) | >32 µg/mL | 4 µg/mL (≈ 6 µM) | 1 µg/mL (≈ 1.5 µM) | 4 µg/mL (≈ 6 µM) | >32 µg/mL | 4 µg/mL (≈ 6 µM) | 4 µg/mL (≈ 6 µM) | 4 µg/mL (≈ 6 µM) |
